Data from ChEMBL document CHEMBL4425179, “Colorectal anticancer activities of polymethoxylated 3-naphthyl-5-phenylpyrazoline-carbothioamides” (Bioorg Med Chem Lett, 2016).
Blank lines part the entries; values can stand above or below the compound they belong to. Activity calls are given as the source filed them. No cut-off for these calls is given here.

Assays:
HCT-116 [1] = assay: Growth inhibition of human HCT116 cells after 7 days by clonogenic survival assay; format: functional; details: HCT-116, 168 h
HCT-116 [2] = assay: Cytotoxicity against human HCT116 cells assessed as decrease in cell viability after 24 hrs by WST-8 based CCK-8 assay; format: functional
HCT-116 [3] = assay: Induction of apoptosis in human HCT116 cells assessed as caspase 9 cleavage at 20 uM after 36 hrs by Western blot analysis; format: functional, cell-based
HCT-116 [4] = assay: Cell cycle arrest in human HCT116 cells assessed as accumulation at G2/M phase at 20 uM after 24 to 48 hrs by propidium iodide staining based flow cytometry (reference value: 22.9 to 24%); format: functional
Homo sapiens = species: Homo sapiens; assay: Selectivity ratio of IC50 for human recombinant N-terminal His6-tagged full-length aurora A to IC50 for human recombinant His-tagged aurora B
HCT-116 [5] = assay: Cell cycle arrest in human HCT116 cells assessed as accumulation at G1 phase at 40 uM after 24 to 48 hrs by propidium iodide staining based flow cytometry (reference value: 51 to 58.9%); format: functional
HCT-116 [6] = assay: Downregulation of cyclin B1 expression in human HCT116 cells at 20 uM by Western blot analysis; format: functional, cell-based; details: TDE = time-dependent effect
HCT-116 [7] = assay: Induction of apoptosis in human HCT116 cells assessed as PARP cleavage at 20 uM after 36 hrs by Western blot analysis; format: functional, cell-based
HCT-116 [8] = assay: Cell cycle arrest in human HCT116 cells assessed as accumulation at G1 phase after 24 to 48 hrs by propidium iodide staining based flow cytometry; format: functional
HCT-116 [9] = assay: Cell cycle arrest in human HCT116 cells assessed as accumulation at G2/M phase at 10 uM after 24 to 48 hrs by propidium iodide staining based flow cytometry (reference value: 22.9 to 24%); format: functional
[10] = molecular target: T1, Aurora kinase A (Homo sapiens) (UniProt O14965); assay: Inhibition of aurora A in human HCT116 cells assessed as decrease in histone H3 phosphorylation at Ser-10 at 20 uM by Western blot analysis; format: cell-based; details: TDE = time-dependent effect
T1 sequence (whole entry): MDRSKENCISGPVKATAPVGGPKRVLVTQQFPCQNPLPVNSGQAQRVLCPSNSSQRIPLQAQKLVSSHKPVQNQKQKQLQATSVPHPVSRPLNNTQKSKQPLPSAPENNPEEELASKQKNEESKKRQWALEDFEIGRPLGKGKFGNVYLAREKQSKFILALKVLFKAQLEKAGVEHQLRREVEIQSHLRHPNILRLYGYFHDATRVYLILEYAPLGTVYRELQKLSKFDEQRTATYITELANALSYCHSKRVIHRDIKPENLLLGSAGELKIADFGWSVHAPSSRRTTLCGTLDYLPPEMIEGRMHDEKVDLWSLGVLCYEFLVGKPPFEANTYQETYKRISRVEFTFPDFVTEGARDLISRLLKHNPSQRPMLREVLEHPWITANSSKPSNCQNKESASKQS

HCT-116 [11] = assay: Cell cycle arrest in human HCT116 cells assessed as accumulation at S phase at 20 uM after 24 to 48 hrs by propidium iodide staining based flow cytometry (reference value: 13 to 18%); format: functional
HCT-116 [12] = assay: Cell cycle arrest in human HCT116 cells assessed as accumulation at S phase at 40 uM after 24 to 48 hrs by propidium iodide staining based flow cytometry (reference value: 13 to 18%); format: functional
Aurora kinase B [13] = molecular target: T2, Aurora kinase B (Homo sapiens, UniProt Q96GD4); assay: Inhibition of aurora B in human HCT116 cells assessed as decrease in histone H3 phosphorylation at Ser-10 at 20 uM by Western blot analysis; format: cell-based; details: TDE = time-dependent effect
Aurora kinase A = molecular target: T3, Aurora kinase A (Homo sapiens, UniProt O14965); assay: Inhibition of human recombinant N-terminal His6-tagged full-length aurora A expressed in Sf21 insect cells using ER-alpha as substrate after 25 mins by immunoblot analysis
T3 sequence (O14965 whole entry): T1 sequence (whole entry)

HCT-116 [14] = assay: Induction of apoptosis in human HCT116 cells assessed as caspase 7 cleavage at 20 uM after 36 hrs by Western blot analysis; format: functional, cell-based
[15] = molecular target: T4, Aurora kinase C (Homo sapiens) (UniProt Q9UQB9); assay: Inhibition of aurora C phosphorylation at Thr-198 in human HCT116 cells at 20 uM by Western blot analysis; format: cell-based; details: TDE = time-dependent effect
T4 sequence (whole entry): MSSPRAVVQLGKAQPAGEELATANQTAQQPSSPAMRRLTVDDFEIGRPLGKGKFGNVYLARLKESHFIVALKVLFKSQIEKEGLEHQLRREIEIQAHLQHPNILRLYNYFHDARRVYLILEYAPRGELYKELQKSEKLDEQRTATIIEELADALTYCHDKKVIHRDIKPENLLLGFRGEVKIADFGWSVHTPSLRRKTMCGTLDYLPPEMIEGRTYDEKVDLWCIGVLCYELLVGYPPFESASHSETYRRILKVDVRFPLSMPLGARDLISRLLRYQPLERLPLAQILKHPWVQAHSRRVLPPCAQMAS

Aurora kinase B [16] = molecular target: T2, Aurora kinase B; assay: Inhibition of human recombinant His-tagged aurora B expressed in baculovirus infected Sf21 insect cells by Western blot analysis
HCT-116 [17] = assay: Cell cycle arrest in human HCT116 cells assessed as accumulation at G1 phase at 20 uM after 24 to 48 hrs by propidium iodide staining based flow cytometry (reference value: 51 to 58.9%); format: functional
HCT-116 [18] = assay: Induction of apoptosis in human HCT116 cells assessed as caspase 3 cleavage at 20 uM after 36 hrs by Western blot analysis; format: functional, cell-based
HCT-116 [19] = assay: Cell cycle arrest in human HCT116 cells assessed as accumulation at sub-G1 phase at 20 uM after 48 hrs by propidium iodide staining based flow cytometry (reference value: 4%); format: functional
HCT-116 [20] = assay: Cell cycle arrest in human HCT116 cells assessed as accumulation at G2/M phase at 40 uM after 24 to 48 hrs by propidium iodide staining based flow cytometry (reference value: 22.9 to 24%); format: functional
Aurora kinase B [21] = molecular target: T2, Aurora kinase B; assay: Inhibition of aurora B phosphorylation at Thr-232 in human HCT116 cells at 20 uM by Western blot analysis; format: cell-based; details: TDE = time-dependent effect
HCT-116 [22] = assay: Cell cycle arrest in human HCT116 cells assessed as accumulation at G1 phase at 10 uM after 24 to 48 hrs by propidium iodide staining based flow cytometry (reference value: 51 to 58.9%); format: functional
HCT-116 [23] = assay: Cell cycle arrest in human HCT116 cells assessed as accumulation at S phase at 10 uM after 24 to 48 hrs by propidium iodide staining based flow cytometry (reference value: 13 to 18%); format: functional
HCT-116 [24] = assay: Downregulation of cyclin D1 expression in human HCT116 cells at 20 uM by Western blot analysis; format: functional, cell-based; details: TDE = time-dependent effect
[25] = molecular target: T1, Aurora kinase A (Homo sapiens); assay: Inhibition of aurora A phosphorylation at Thr-288 in human HCT116 cells at 20 uM by Western blot analysis; format: cell-based; details: TDE = time-dependent effect

T2 sequence (Q96GD4 whole entry): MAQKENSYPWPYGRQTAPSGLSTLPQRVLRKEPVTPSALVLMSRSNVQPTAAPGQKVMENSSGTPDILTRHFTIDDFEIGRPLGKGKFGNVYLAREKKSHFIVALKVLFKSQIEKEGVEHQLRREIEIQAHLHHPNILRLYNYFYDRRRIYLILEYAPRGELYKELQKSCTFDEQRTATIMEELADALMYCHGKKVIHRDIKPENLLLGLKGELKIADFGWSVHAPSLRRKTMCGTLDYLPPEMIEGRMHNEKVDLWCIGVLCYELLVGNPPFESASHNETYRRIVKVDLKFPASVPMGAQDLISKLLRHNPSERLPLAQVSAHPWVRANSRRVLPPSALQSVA

Compound: COc1cccc(NC(=S)N2N=C(c3ccc4ccccc4c3O)CC2c2ccccc2OC)c1 (stereo not given)
GI50 (HCT-116 [1]; read-out: GI50): 445 nM
GI50 (HCT-116 [1]; read-out: pGI50 (converted)): 447 nM

Compound: COc1ccccc1C1CC(c2c(O)ccc3ccccc23)=NN1C(=S)Nc1cc(OC)c(OC)c(OC)c1 (stereo not given)
GI50 (HCT-116 [1]; read-out: GI50): 994 nM
GI50 (HCT-116 [1]; read-out: pGI50 (converted)): 1000 nM

Compound: COc1cccc(C2CC(c3ccc4ccccc4c3O)=NN2C(=S)Nc2ccccc2)c1 (stereo not given)
GI50 (HCT-116 [1]; read-out: GI50): 321 nM
GI50 (HCT-116 [1]; read-out: pGI50 (converted)): 324 nM

Compound: COc1ccc(C2CC(c3ccc4ccccc4c3O)=NN2C(=S)Nc2cc(OC)c(OC)c(OC)c2)cc1 (stereo not given)
GI50 (HCT-116 [1]; read-out: GI50): 208 nM
GI50 (HCT-116 [1]; read-out: pGI50 (converted)): 209 nM

Compound: COc1ccc(C2CC(c3ccc4ccccc4c3O)=NN2C(=S)Nc2ccccc2)cc1 (stereo not given)
GI50 (HCT-116 [1]; read-out: GI50): 239 nM
GI50 (HCT-116 [1]; read-out: pGI50 (converted)): 240 nM

Compound: COc1ccc(C2CC(c3ccc4ccccc4c3O)=NN2C(=S)Nc2ccccc2OC)cc1 (stereo not given)
GI50 (HCT-116 [1]; read-out: GI50): 3540 nM
GI50 (HCT-116 [1]; read-out: pGI50 (converted)): 3550 nM

Compound: COc1cccc(NC(=S)N2N=C(c3ccc4ccccc4c3O)CC2c2cccc(OC)c2)c1 (stereo not given)
GI50 (HCT-116 [1]; read-out: GI50): 272 nM
GI50 (HCT-116 [1]; read-out: pGI50 (converted)): 269 nM

Compound: COc1ccc(NC(=S)N2N=C(c3ccc4ccccc4c3O)CC2c2cccc(OC)c2)cc1 (stereo not given)
GI50 (HCT-116 [1]; read-out: GI50): 318 nM
GI50 (HCT-116 [1]; read-out: pGI50 (converted)): 316 nM

Compound: COc1cccc(C2CC(c3ccc4ccccc4c3O)=NN2C(=S)Nc2cc(OC)c(OC)c(OC)c2)c1 (stereo not given)
GI50 (HCT-116 [1]; read-out: GI50): 201 nM
GI50 (HCT-116 [1]; read-out: pGI50 (converted)): 200 nM

Compound: COc1ccc(NC(=S)N2N=C(c3c(O)ccc4ccccc34)CC2c2ccccc2OC)cc1 (stereo not given)
GI50 (HCT-116 [1]; read-out: GI50): 742 nM
GI50 (HCT-116 [1]; read-out: pGI50 (converted)): 741 nM

Ratio IC50 (Homo sapiens): 12.3
inhibition [10]: Tde
inhibition (Aurora kinase B [13]): Tde
IC50 (Aurora kinase A): 105000 nM
inhibition [15]: Tde
IC50 (Aurora kinase B [16]): 8530 nM
inhibition (Aurora kinase B [21]): Tde
inhibition [25]: Tde
Compound: COc1ccc(C2CC(c3ccc4ccccc4c3O)=NN2C(=S)Nc2cccc(OC)c2)cc1 (stereo not given)
Activity (HCT-116 [2]): Dose-dependent effect
GI50 (HCT-116 [1]; read-out: GI50): 196 nM
GI50 (HCT-116 [1]; read-out: pGI50 (converted)): 195 nM
Activity (HCT-116 [3]): Active
Activity (HCT-116 [4]): 25.7 - 27%
Activity (HCT-116 [5]): 36.8%
Activity (HCT-116 [6]): Tde
Activity (HCT-116 [7]): Active
Activity (HCT-116 [8]): Dose-dependent effect
Activity (HCT-116 [9]): 26.8%
Activity (HCT-116 [11]): 27.4 - 28%
Activity (HCT-116 [12]): 29.4%
Activity (HCT-116 [14]): Active
Activity (HCT-116 [17]): 18 - 43.2%
Activity (HCT-116 [18]): Active
Activity (HCT-116 [19]): 17%
Activity (HCT-116 [20]): 30.8%
Activity (HCT-116 [22]): 45.6%
Activity (HCT-116 [23]): 23.7%
Activity (HCT-116 [24]): Tde

Compound: COc1ccccc1C1CC(c2ccc3ccccc3c2O)=NN1C(=S)Nc1ccccc1 (stereo not given)
GI50 (HCT-116 [1]; read-out: GI50): 742 nM
GI50 (HCT-116 [1]; read-out: pGI50 (converted)): 741 nM

Compound: COc1ccccc1C1CC(c2c(O)ccc3ccccc23)=NN1C(=S)Nc1ccccc1 (stereo not given)
GI50 (HCT-116 [1]; read-out: GI50): 2500 nM
GI50 (HCT-116 [1]; read-out: pGI50 (converted)): 2510 nM

Compound: COc1cccc(C2CC(c3ccc4ccccc4c3O)=NN2C(=S)Nc2ccc(OC)cc2OC)c1 (stereo not given)
GI50 (HCT-116 [1]; read-out: GI50): 2430 nM
GI50 (HCT-116 [1]; read-out: pGI50 (converted)): 2450 nM

Compound: COc1ccc(C2CC(c3ccc4ccccc4c3O)=NN2C(=S)Nc2ccc(OC)cc2OC)cc1 (stereo not given)
GI50 (HCT-116 [1]; read-out: GI50): 2470 nM
GI50 (HCT-116 [1]; read-out: pGI50 (converted)): 2450 nM

Compound: COc1ccccc1NC(=S)N1N=C(c2c(O)ccc3ccccc23)CC1c1ccccc1OC (stereo not given)
GI50 (HCT-116 [1]; read-out: GI50): 3970 nM
GI50 (HCT-116 [1]; read-out: pGI50 (converted)): 3980 nM

Compound: COc1ccc(NC(=S)N2N=C(c3ccc4ccccc4c3O)CC2c2ccccc2OC)c(OC)c1 (stereo not given)
GI50 (HCT-116 [1]; read-out: GI50): 4200 nM
GI50 (HCT-116 [1]; read-out: pGI50 (converted)): 4170 nM

Compound: COc1ccc(NC(=S)N2N=C(c3ccc4ccccc4c3O)CC2c2ccc(OC)cc2)cc1 (stereo not given)
GI50 (HCT-116 [1]; read-out: GI50): 234 nM
GI50 (HCT-116 [1]; read-out: pGI50 (converted)): 234 nM

Compound: COc1ccccc1C1CC(c2ccc3ccccc3c2O)=NN1C(=S)Nc1cc(OC)c(OC)c(OC)c1 (stereo not given)
GI50 (HCT-116 [1]; read-out: GI50): 223 nM
GI50 (HCT-116 [1]; read-out: pGI50 (converted)): 224 nM

Compound: COc1ccc(NC(=S)N2N=C(c3ccc4ccccc4c3O)CC2c2ccccc2OC)cc1 (stereo not given)
GI50 (HCT-116 [1]; read-out: GI50): 369 nM
GI50 (HCT-116 [1]; read-out: pGI50 (converted)): 372 nM

Compound: COc1ccccc1NC(=S)N1N=C(c2ccc3ccccc3c2O)CC1c1ccccc1OC (stereo not given)
GI50 (HCT-116 [1]; read-out: GI50): 4920 nM
GI50 (HCT-116 [1]; read-out: pGI50 (converted)): 4900 nM

Compound: COc1cccc(C2CC(c3ccc4ccccc4c3O)=NN2C(=S)Nc2ccccc2OC)c1 (stereo not given)
GI50 (HCT-116 [1]; read-out: GI50): 3920 nM
GI50 (HCT-116 [1]; read-out: pGI50 (converted)): 3890 nM
